For assay [1], the system named is HLA-A24. Nature of the assay: HLA-A24 binding assay (MFI shift on T2-A24 cells). Also noted: species or system human. Conditions: for binding to HLA-A24: T2-A24 cells, MFI shift. As for the experimental part:
T2-A24 cells, which are HLA-A24-expressing T2 cells, were preincubated in a CO2 incubator at 27° C. overnight. The cells collected were resuspended in Opti-MEM and plated on a round bottom 96 well plate (Corning) with about 1×10^5 cells/200 μL per well. A subject peptide was added at concentrations of 0.33 μM, […], and 10 μM, and incubation was carried out in a CO2 incubator at 27° C. for 3 hours and subsequently at 37° C. for 2.5 hours. Subsequently, the cells were subjected to centrifugation (380 g, 5 minutes) as they were on the plate, resuspended in 100 μL of a C7709A2 monoclonal antibody-producing hybridoma culture supernatant, and incubated on ice for 45 to 60 minutes. The cells were washed with ice-cooled PBS and then incubated together with an FITC-conjugated goat anti-mouse IgG antibody (KPL, Gaithersburg, MD) on ice for 30 minutes. The cells were washed with ice-cooled PBS as they were on the plate, then resuspended in 1% formaldehyde and PBS, and analyzed by a FACScan (BD Biosciences, Mountain View, CA), and the mean fluorescence intensity (MFI) shift (fluorescence increase as a result of stabilization by binding peptide) due to an increase in the amount of stable HLA-A24 molecules was thus measured. A cell treated with nonbinding peptide GK12 (concentration 0 to 10 μM) has a constant MFI and it was used as a negative control.
The MFI shift (AMFI) for a peptide concentration of 1 μM was measured for 26 types of randomly selected peptides of the natural peptides obtained in Example 1 above. A score was also calculated for these peptides using NetMHC3.4, and correlation with ΔMFI was investigated.

Assay [2] concerns human PBMC. Nature of the assay: CTL induction from PBMC by peptide stimulation. To be noted: peptide 10 μg/mL, PBMC of HLA-A24-positive healthy controls, method of Example 5 (1). Format: cell-based. As for the experimental part:
Peripheral blood was collected using a heparin-containing 50 ML syringe from HLA-A24-positive healthy controls who had given informed consent. The whole blood was layered in a 50 mL tube (Falcon) to which 13 mL of Lymphoprep (Nycomed) had been added, and subjected to centrifugation at 2000 rpm for 30 minutes. A PBMC layer precipitated on the Lymphoprep layer was recovered using a pipette and washed three times with PBS, thus giving human PBMC.
About 3×10^7 cells/plate of the human PBMC separated above and 10 mL of Hepes-modified RPMI1640 medium (Sigma) containing 2-mercaptoethanol (final concentration 55 μM), L-glutamine (final concentration 2 mM), as antibiotics streptomycin (final concentration 100 μg/mL) and penicillin G (final concentration 100 U/mL), and 5% serum component were placed in each well of a […] for cell culture (BECTON DIKINSON), and suspension cultured. PVT1-derived natural antigen peptide of SEQ ID No: 1 (hereinafter referred to as ‘HF10’) or SUV39H2-derived natural antigen peptide of SEQ ID No: 2 (hereinafter referred to as ‘RF8’) were added thereto at a concentration of 10 μg/mL. After culturing was carried out for 2 days, IL-2 was added at a final concentration of 50 U/mL, and culturing was carried out for a further 2 weeks. […]

As for “GK12: synthetic nonbinding peptide used as negative control for HLA-A24 binding (GYISPYFINTSK) [reference compound]”, the “MFI of T2-A24 cells treated with peptide” value in assay [1] (concentration 0 to 10 μM, negative control peptide) is on record as “constant MFI”.
Regarding “HWNDTRPAHF [SEQ ID No: 1, PVT1-derived natural antigen peptide]”, the “binding to HLA-A24” value in assay [1] is “high binding”. The CTL induction result in assay [2] is on record as “A plurality of CTL clones were induced”.
As for “IFQGNVHNF [SEQ ID No: 4, SNRNP40-derived natural peptide]”, in assay [1], the “binding to HLA-A24” value is reported as “high binding”.
As for “KYVKDFHKF [SEQ ID No: 3, ZNF724P-derived natural peptide]”, the “binding to HLA-A24” value in assay [1] was “high binding”.
Turning to “RYGNVSHF [SEQ ID No: 2, SUV39H2-derived natural antigen peptide]”, the “binding to HLA-A24” value in assay [1] was “high binding”. In addition, the CTL induction entry in assay [2] is on record as “A plurality of CTL clones were induced”.
For the substance “VYTYIQSRF [SEQ ID No: 5, DYRK4-derived natural peptide]”, in assay [1], the “binding to HLA-A24” value is given as “high binding”.

Source of the values: patent US12637500B2, “Tumor antigen peptide” (Niigata University, priority 2015, dated 2026).
